# Reference: patent publication US6706663B2, “Herbicidal 3-heterocyclic substituted benzisothiazole and benzisoxazole compounds” (Wyeth, priority 2000, dated 2004)
# Experiments:
# [1] = tested on: TRZAWR (Wheat, Winter, cv Riband); test: Preemergence herbicidal evaluation; assay type: in vivo, Triticum aestivum; details: preemergence, rated 4-5 weeks after treatment
# Procedure, shortened: (§1)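 Scores (0–9) reflect visual comparison with control plants for stand, vigor, malformation, size and chlorosis. Seeds in potting soil received a post-planting spray of compound in aqueous acetone and grew in a greenhouse until assessment 4–5 weeks later.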
# [2] = tested on: ORYSAT (Rice, Tebonnet); test: Flooded paddy, post-transplant rice tolerance; assay type: in vivo, Oryza sativa, (L.) Tebonnet; details: flooded paddy, post-transplant rice, rated 3-4 weeks after treatment, 0-9 rating scale
# Procedure, shortened: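 Scores (0-9) reflect visual injury relative to untreated plants in flooded silt loam. Each pot held two transplanted ten-day-old seedlings under 1.5 to 3 cm standing water in the greenhouse.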
# [3] = tested on: ZEAMX (Corn, Field); test: Postemergence herbicidal evaluation; assay type: in vivo, Zea mays, L.
# Procedure, shortened: (§2)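 Seedlings grown about two weeks in flats, sprayed, then kept under standard greenhouse care. Rated visually 4–5 weeks after treatment on a 0–9 scale (stand, vigour, malformation, size, chlorosis, overall appearance) relative to untreated control; repeat tests averaged.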
# [4] = tested on: GALAP (Galium aparine); test: Preemergence herbicidal evaluation; assay type: in vivo; details: preemergence, rated 4-5 weeks after treatment
# Procedure, shortened: as §1
# [5] = tested on: IPOHE (Ipomoea hederacea); test: Preemergence herbicidal evaluation; assay type: in vivo, (L.) Jacq.; details: preemergence, rated 4-5 weeks after treatment
# [6] = tested on: ORYSAT (Rice, Tebonnet); test: Postemergence herbicidal evaluation; assay type: in vivo, Oryza sativa, (L.) Tebonnet
# Procedure, shortened: as §2
# [7] = tested on: CASOB (Cassia obtusifolia); test: Preemergence herbicidal evaluation; assay type: in vivo, L.; details: preemergence, rated 4-5 weeks after treatment
# Procedure, shortened: as §1
# [8] = tested on: CHEAL (Chenopodium album); test: Preemergence herbicidal evaluation; assay type: in vivo, L.; details: preemergence, rated 4-5 weeks after treatment
# Procedure, shortened: as §1
# [9] = tested on: AMBEL (Ambrosia artemisifolia); test: Preemergence herbicidal evaluation; assay type: in vivo, L.; details: preemergence, rated 4-5 weeks after treatment
# Procedure, shortened: as §1
# [10] = tested on: CYPSE (Cyperus serotinus); test: Flooded paddy, preemergence weed control; assay type: in vivo, Rottb.; details: rated 3-4 weeks after treatment, 0-9 rating scale
# Procedure, shortened: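 Seeds or propagules were planted 0.5 cm deep in silt loam and flooded to 1.5–3 cm. Compounds in 50/50 v/v aqueous/acetone were pipetted into the flood water at about 0.0080 to 0.1250 kg/ha. After 3–4 weeks in the greenhouse, effect was rated visually on a 0–9 scale versus untreated control.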
# [11] = tested on: GLXMAW (Soybean, Williams); test: Postemergence herbicidal evaluation; assay type: in vivo, Glycine max, (L.) Merr. cv Williams
# Procedure, shortened: as §2
# [12] = tested on: ABUTH (Abutilon theophrasti); test: Postemergence herbicidal evaluation; assay type: in vivo, Medic.
# Procedure, shortened: as §2
# [13] = tested on: ABUTH (Abutilon theophrasti); test: Preemergence herbicidal evaluation; assay type: in vivo, Medic.; details: preemergence, rated 4-5 weeks after treatment
# [14] = tested on: GALAP (Galium aparine); test: Postemergence herbicidal evaluation; assay type: in vivo
# Procedure, shortened: as §2
# [15] = tested on: SAGPY (Sagittaria pygmaea); test: Flooded paddy, preemergence weed control; assay type: in vivo, L.; details: rated 3-4 weeks after treatment, 0-9 rating scale
# Procedure, shortened: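 Ratings of 0-9 reflect visual comparison with a control for stand, vigor, deformity, size, chlorosis and overall look. Propagules were placed in shallow silt loam (top 0.5 cm) under a continuous 1.5–3 cm flood and grown in the greenhouse.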
# [16] = tested on: ORYSAT (Rice, Tebonnet); test: Preemergence herbicidal evaluation; assay type: in vivo, Oryza sativa, (L.) Tebonnet; details: preemergence, rated 4-5 weeks after treatment
# [17] = tested on: CASOB (Cassia obtusifolia); test: Postemergence herbicidal evaluation; assay type: in vivo, L.
# Procedure, shortened: as §2
# [18] = tested on: CHEAL (Chenopodium album); test: Postemergence herbicidal evaluation; assay type: in vivo, L.
# Procedure, shortened: as §2
# [19] = tested on: AMBEL (Ambrosia artemisifolia); test: Postemergence herbicidal evaluation; assay type: in vivo, L.
# Procedure, shortened: as §2
# [20] = tested on: ECHCG (Echinochloa crus-galli); test: Postemergence herbicidal evaluation; assay type: in vivo, (L.) Beau
# Procedure, shortened: as §2
structure (smiles),measurement,setting,value
"CN(C(=O)c1nsc2ccc(-n3c(=O)cc(C(F)(F)F)n(C)c3=O)cc12)c1ccc(Cl)cc1 [Compound 18, 1,2-benzisothiazole-3-carboxanilide, 4′-chloro-5-[3,6-dihydro-3-methyl-2,6-dioxo-4-(trifluoromethyl)-1(2H)-pyrimidinyl]-N-methyl-]",TRZAWR preemergence herbicidal rating,[1]; Rate 0.0620 kg/ha,0.0
same,TRZAWR preemergence herbicidal rating,[1]; Rate 0.1250 kg/ha,4.0
same,TRZAWR preemergence herbicidal rating,[1]; Rate 0.2500 kg/ha,8.0
same,"herbicidal rating, ORYSAT (rice tolerance)",[2]; rate 0.0080 kg/ha,0.0
same,"herbicidal rating, ORYSAT (rice tolerance)",[2]; rate 0.0320 kg/ha,1.5
same,"herbicidal rating, ORYSAT (rice tolerance)",[2]; rate 0.1250 kg/ha,5.0
same,"Postemergence herbicidal rating, ZEAMX",[3]; rate 0.0320 kg/ha,5.0
same,"Postemergence herbicidal rating, ZEAMX",[3]; rate 0.0620 kg/ha,5.0
same,"Postemergence herbicidal rating, ZEAMX",[3]; rate 0.1250 kg/ha,5.5
same,"Postemergence herbicidal rating, ZEAMX",[3]; rate 0.2500 kg/ha,7.0
same,GALAP preemergence herbicidal rating,[4]; Rate 0.0620 kg/ha,0.0
same,GALAP preemergence herbicidal rating,[4]; Rate 0.1250 kg/ha,0.0
same,GALAP preemergence herbicidal rating,[4]; Rate 0.2500 kg/ha,9.0
same,IPOHE preemergence herbicidal rating,[5]; Rate 0.0620 kg/ha,3.0
same,IPOHE preemergence herbicidal rating,[5]; Rate 0.1250 kg/ha,9.0
same,IPOHE preemergence herbicidal rating,[5]; Rate 0.2500 kg/ha,9.0
same,"Postemergence herbicidal rating, ORYSAT",[6]; rate 0.0320 kg/ha,2.0
same,"Postemergence herbicidal rating, ORYSAT",[6]; rate 0.0620 kg/ha,3.0
same,"Postemergence herbicidal rating, ORYSAT",[6]; rate 0.1250 kg/ha,5.0
same,"Postemergence herbicidal rating, ORYSAT",[6]; rate 0.2500 kg/ha,5.5
same,CASOB preemergence herbicidal rating,[7]; Rate 0.0620 kg/ha,0.0
same,CASOB preemergence herbicidal rating,[7]; Rate 0.1250 kg/ha,1.0
same,CASOB preemergence herbicidal rating,[7]; Rate 0.2500 kg/ha,1.0
same,CHEAL preemergence herbicidal rating,[8]; Rate 0.0620 kg/ha,9.0
same,CHEAL preemergence herbicidal rating,[8]; Rate 0.1250 kg/ha,9.0
same,CHEAL preemergence herbicidal rating,[8]; Rate 0.2500 kg/ha,9.0
same,AMBEL preemergence herbicidal rating,[9]; Rate 0.0620 kg/ha,7.0
same,AMBEL preemergence herbicidal rating,[9]; Rate 0.1250 kg/ha,9.0
same,AMBEL preemergence herbicidal rating,[9]; Rate 0.2500 kg/ha,9.0
same,"herbicidal rating, CYPSE",[10]; rate 0.0320 kg/ha,4.0
same,"herbicidal rating, CYPSE",[10]; rate 0.1250 kg/ha,4.0
same,"Postemergence herbicidal rating, GLXMAW",[11]; rate 0.0320 kg/ha,6.0
same,"Postemergence herbicidal rating, GLXMAW",[11]; rate 0.0620 kg/ha,8.0
same,"Postemergence herbicidal rating, GLXMAW",[11]; rate 0.1250 kg/ha,8.0
same,"Postemergence herbicidal rating, GLXMAW",[11]; rate 0.2500 kg/ha,8.5
same,"Postemergence herbicidal rating, ABUTH",[12]; rate 0.0320 kg/ha,9.0
same,"Postemergence herbicidal rating, ABUTH",[12]; rate 0.0620 kg/ha,9.0
same,"Postemergence herbicidal rating, ABUTH",[12]; rate 0.1250 kg/ha,9.0
same,"Postemergence herbicidal rating, ABUTH",[12]; rate 0.2500 kg/ha,9.0
same,ABUTH preemergence herbicidal rating,[13]; Rate 0.0620 kg/ha,9.0
same,ABUTH preemergence herbicidal rating,[13]; Rate 0.1250 kg/ha,9.0
same,ABUTH preemergence herbicidal rating,[13]; Rate 0.2500 kg/ha,9.0
same,"Postemergence herbicidal rating, GALAP",[14]; rate 0.0320 kg/ha,2.0
same,"Postemergence herbicidal rating, GALAP",[14]; rate 0.0620 kg/ha,4.0
same,"Postemergence herbicidal rating, GALAP",[14]; rate 0.1250 kg/ha,6.0
same,"Postemergence herbicidal rating, GALAP",[14]; rate 0.2500 kg/ha,9.0
same,"herbicidal rating, SAGPY",[15]; rate 0.0080 kg/ha,0.0
same,"herbicidal rating, SAGPY",[15]; rate 0.0320 kg/ha,1.5
same,"herbicidal rating, SAGPY",[15]; rate 0.1250 kg/ha,5.0
same,ORYSAT preemergence herbicidal rating,[16]; Rate 0.0620 kg/ha,0.0
same,ORYSAT preemergence herbicidal rating,[16]; Rate 0.1250 kg/ha,5.0
same,ORYSAT preemergence herbicidal rating,[16]; Rate 0.2500 kg/ha,8.0
same,"Postemergence herbicidal rating, CASOB",[17]; rate 0.0320 kg/ha,0.0
same,"Postemergence herbicidal rating, CASOB",[17]; rate 0.0620 kg/ha,1.0
same,"Postemergence herbicidal rating, CASOB",[17]; rate 0.1250 kg/ha,2.0
same,"Postemergence herbicidal rating, CASOB",[17]; rate 0.2500 kg/ha,6.0
same,"Postemergence herbicidal rating, CHEAL",[18]; rate 0.0320 kg/ha,7.0
same,"Postemergence herbicidal rating, CHEAL",[18]; rate 0.0620 kg/ha,7.0
same,"Postemergence herbicidal rating, CHEAL",[18]; rate 0.1250 kg/ha,7.0
same,"Postemergence herbicidal rating, CHEAL",[18]; rate 0.2500 kg/ha,9.0
same,"Postemergence herbicidal rating, AMBEL",[19]; rate 0.0320 kg/ha,2.0
same,"Postemergence herbicidal rating, AMBEL",[19]; rate 0.0620 kg/ha,9.0
same,"Postemergence herbicidal rating, AMBEL",[19]; rate 0.1250 kg/ha,9.0
same,"Postemergence herbicidal rating, AMBEL",[19]; rate 0.2500 kg/ha,9.0
same,"Postemergence herbicidal rating, ECHCG",[20]; rate 0.0320 kg/ha,0.0
same,"Postemergence herbicidal rating, ECHCG",[20]; rate 0.0620 kg/ha,0.0
same,"Postemergence herbicidal rating, ECHCG",[20]; rate 0.1250 kg/ha,0.0
same,"Postemergence herbicidal rating, ECHCG",[20]; rate 0.2500 kg/ha,5.0
